Here are results for one molecule from US20140294753A1, “NOVEL USE OF GANODERMIC ACIDS FOR TREATING CANCER” (DOUBLE CRANE BIOTECHNOLOGY CO. LTD, priority 2013, published 2014).

Experiment [1] deals with gefitinib-resistant human non-small cell lung cancer cell line PC-9 (PC9-IR). As to the kind of experiment: Cell activity analysis (acid phosphatase, ACP).
Method: (§9) Each cell lines were cultured and maintained in Dulbecco's modified Eagle media (DMEM) supplemented with 1% fetal bovine serum (FBS), 100 IU/ml penicillin, 100 ng/ml streptomycin, 2 mM glutamine, non-essential amino acids and sodium pyruvate in 5% CO2 at 37° C. Cells were grown and maintained in Petri dishes (each was 10 cm in diameter) until reached 80% confluence, then were subject to cell passages. […] Collected the suspended cells, added 2 mL fresh culture media to neutralize any remaining activity of trypsin. Adjusted the cell density by adding appropriate amounts of culture medium to the cell suspension, which was then used to seed the culture plates. The plates were then returned to the incubator and cultured in accordance with the steps described above.
(§10) In operation, cultured cells in each well were washed with PBS (200 μl), then a reacting solution (100 μl) (10 mM p-NPP, 0.1 M sodium acetate, 0.1% Triton X-100, pH 5.5) was added and allowed to react with the cells for 30-40 min at 37° C. The reaction was subsequently stopped with a basic solution (10 μl, 0.1N NaOH). […]
Experiment [2] has as its system human breast carcinoma cell line MDA-MB-231. As to the kind of experiment: Cell activity analysis (acid phosphatase, ACP). The class given is cell-based. To be noted: Breast Cancer MDA-MB-231, treated at least 48 hrs, read-out: IC50 (50% cell activity inhibited). How it is done: (§1) Cell lines used in the present disclosure include human lung adenocarcinoma cell line A549, human hepatocarcinoma cell line Huh7, human colon carcinoma cell line HCT116, human non-small cell lung cancer cell line PC-9, gefitinib-resistant human non-small cell lung cancer cell line PC-9 (PC9-IR), and human breast carcinoma cell line MDA-MB-231.
(§2) Each cell lines were cultured and maintained in Dulbecco's modified Eagle media (DMEM) supplemented with 1% fetal bovine serum (FBS), 100 IU/ml penicillin, 100 ng/ml streptomycin, 2 mM glutamine, non-essential amino acids and sodium pyruvate in 5% CO2 at 37° C. Cells were grown and maintained in Petri dishes (each was 10 cm in diameter) until reached 80% confluence, then were subject to cell passages. Briefly, cells were first washed with phosphate buffer solution (PBS, 3 ml) once, then treated with 0.05% Trypsin/0.025% EDTA solution (1 mL) for 5 min so that the attached cells become suspended. Collected the suspended cells, added 2 mL fresh culture media to neutralize any remaining activity of trypsin. Adjusted the cell density by adding appropriate amounts of culture medium to the cell suspension, which was then used to seed the culture plates. The plates were then returned to the incubator and cultured in accordance with the steps described above.
(§3) Cells were seeded in 96-well plates with a density of 3,000 cells/well and cultured in accordance with the procedures described above.
(§4) Acid Phosphatase analysis
(§5) Cell activity may be derived from the acid phosphatase (ACP) activity of a cell.
(§6) In operation, cultured cells in each well were washed with PBS (200 μl), then a reacting solution (100 μl) (10 mM p-NPP, 0.1 M sodium acetate, 0.1% Triton X-100, pH 5.5) was added and allowed to react with the cells for 30-40 min at 37° C. The reaction was subsequently stopped with a basic solution (10 μl, 0.1N NaOH). Adsorption at the wavelength of 405 nm was then measured, and the concentration that inhibited 50% cell activity (IC50) was derived from the absorbance measurement.
(§7) The effects of GMAS on various cancer cell lines, including colon cancer, hepatoma, breast cancer, and lung cancer, were respectively assessed by cell activity analysis using ACP activity as an indicator. Results are depicted in FIG. 1.

Experiment [3] relates to human lung adenocarcinoma cell line A549. As to the kind of experiment: Cell activity analysis (acid phosphatase, ACP). The class given is cell-based. To be noted: Lung Cancer A549, treated at least 48 hrs, read-out: IC50 (50% cell activity inhibited). How it is done:
as §1, §2, §3, §4, §5, §6, §7

Experiment [4] relates to human hepatocarcinoma cell line Huh7. As to the kind of experiment: Cell activity analysis (acid phosphatase, ACP). The class given is cell-based. To be noted: Hepatoma Huh-7, treated at least 48 hrs, read-out: IC50 (50% cell activity inhibited). The protocol: as §1, §2, §3, §4, §5, §6, §7
Experiment [5] deals with human colon carcinoma cell line HCT116. As to the kind of experiment: Cell activity analysis (acid phosphatase, ACP). The class given is cell-based. To be noted: Colon Cancer HCT-116, treated at least 48 hrs, read-out: IC50 (50% cell activity inhibited). How it is done:
as §1, §2, §3, §4, §5, §6, §7

The subject of experiment [6] is human non-small cell lung cancer cell line PC-9. As to the kind of experiment: Cell activity analysis (acid phosphatase, ACP). The following applies: PC-9, 72 h, read-out: IC50 (50% cell activity inhibited).
Method: as §9, §10
The test system of the next experiment is HCT-116 cells. As to the kind of experiment: Wound healing assay (cell migration). The class given is cell-based, human. The following applies: up to 72 hrs. The protocol:
(§8) Wound healing assay is one of the earliest developed methods to study directional cell migration in vitro, by mimicking cell migration during wound healing in vivo. The basic steps involve creating a “wound” in a cell monolayer, capturing the images at the beginning and at regular intervals during cell migration to close the wound, and comparing the images to quantify the migration rate of the cells.
Briefly, the assay was carried out using IBIDI culture-inserts and 24-well plates (IBIDI GmbH, Martinsried, Germany). The culture-inserts were respectively placed into each well. Aliquots of […] containing 3×10^4 cells (PC-9, MDA-MB-231 or CL1-5 cells) were added into the two reservoirs of the same insert and incubated for 8 hrs, then the inserts were gently removed from each wells, then culture medium (500 μL, 10% FBS) containing GMAS (25 or 50 μM) or solvent vehicle (i.e., the control) was added to each well. The cells in the culture wells were photographed respectively at 0, 12, 24, 48 and 72 hrs using an inverted microscope. Finally, the migration area or the “wound” area was quantified by Metamorph software (Molecular Devices).
The effect of GMAS on the migration capability of colon cancer cells was assessed using the wound healing assay as described in the section of “Materials and Methods”. Results are illustrated in FIG. 3.

The test system of another experiment is PC-9 cells. As to the kind of experiment: Wound healing assay (cell migration). The class given is cell-based, human. To be noted: 5 μM GMAS; lung cancer cells (PC-9, FIG. 4). The protocol: as §8
Briefly, the assay was carried out using IBIDI culture-inserts and 24-well plates (IBIDI GmbH, Martinsried, Germany). The culture-inserts were respectively placed into each well. Aliquots of […] containing 3×10^4 cells (PC-9, MDA-MB-231 or CL1-5 cells) were added into the two reservoirs of the same insert and incubated for 8 hrs, then the inserts were gently removed from each wells, then culture medium (500 μL, […]) or solvent vehicle (i.e., the control) was added to each well. The cells in the culture wells were photographed respectively at 0, 12, 24, 48 and 72 hrs using an inverted microscope. Finally, the migration area or the “wound” area was quantified by Metamorph software (Molecular Devices).

Structures are written as SMILES.

With `CC(=O)O[C@H]1CC[C@]2(C)C3=CC[C@]4(C)[C@@H]([C@H](C)CC/C=C(\C)C(=O)O)C[C@H](OC(C)=O)[C@@]4(C)C3=CC[C@H]2C1(C)C` [GMAS, ganodermic acid S], the IC50 in experiment [1] (Homo sapiens, 72 h, read-out: IC50 (50% cell activity inhibited)) came out at 62.8 µM; in experiment [2], 20.4 µM; in experiment [3] it was 7.9 µM; in experiment [4], 19.1 µM; in experiment [5] it was 8 µM; in experiment [6] it was 56.1 µM. For the same molecule, the “Resistant Ratio (PC9-IR/PC9)” value in experiment [1] (IC50 of PC9-IR divided by IC50 of PC-9) is listed as 1.1. The “wound closing phenomenon (migration of colon cancer cells)” value with HCT-116 cells (25 μM GMAS) is given as “slightly inhibited”; in the experiment with HCT-116 cells (50 μM GMAS) it was “significantly suppressed”. Further, the “reduction of the migrated area as compared with control” value in the experiment with PC-9 cells is 50%.

A word on the IC50: it is the concentration that gives 50% inhibition.
